Experimental data as given in US20040175447A1, “Feeds and fertilizers containing pentacyclic triterpenes” (The Nisshin OilliO, Ltd., priority 2001, published 2004).

Test system: B-16 melanoma cells
Assay: Evaluation of melanin production-inhibitory effect (cell-whitening degree of cultured B-16 melanoma cells); for Melanin production-inhibitory effect (cell-whitening degree): key: ++: The whitening degree is higher than that observed for the positive control; +: The whitening degree is almost identical to that observed for the positive control; ±: The whitening degree is not higher than that observed for the positive control, but higher than that observed for the control; −: The whitening degree is almost identical to that observed for the control
Type: cell-based
Settings: for Melanin production-inhibitory effect (cell-whitening degree): positive control 450 ppm vitamin C-magnesium phosphate; for melanogenesis-inhibitory function relative to that observed when 450 ppm of vitamin C-magnesium phosphate (standard) is added: from Table 1
Description: In the present invention, the melanogenesis-inhibitory effect is evaluated and compared on the basis of the results of tests for examining the melanogenesis-inhibitory function in which B-16 melanoma cells are cultivated, as a primary evaluation. Moreover, a feed is, for instance, practically prepared and its effectiveness in the melanogenesis-inhibition is evaluated as a secondary evaluation. It has been confirmed that the pentacyclic triterpenes whose strong melanogenesis-inhibitory function is confirmed by the cell culture test as the primary evaluation also show an excellent effect in the secondary evaluation test. In addition, it has also been confirmed that there is a correlation between the results obtained in these two evaluation methods.
If the culture system includes a melanogenesis-inhibitory substance during the proliferation thereof, the blackening of the cells is suppressed while the whitening thereof is relatively promoted. Accordingly, the melanogenesis-inhibitory function of the substance can be evaluated by comparing the degree of whitening observed for the substance with the degree of blackening observed for a control. The evaluated results of the melanogenesis-inhibitory effect obtained in this cell culture system clearly indicate that the pentacyclic triterpenes and/or physiologically acceptable salts thereof or derivatives thereof have quite strong melanogenesis-inhibitory effects. For instance, when comparing the effects thereof with that achieved by vitamin C-magnesium phosphate, the melanogenesis-inhibitory effect is about 100 to 200 times, for maslinic acid, about 100 to 200 times, for maslinic acid salts, about 10 to 100 times, for erythrodiol, about 30 to 120 times, for uvaol, about 30 to 120 times, for betulinic acid, about 10 to 100 times, for betulin, about 100 to 200 times, for ethyl maslinate, about 50 to 150 times, for acetylated maslinic acid, about 30 to 120 times, for triethylsilylated maslinic acid, about 50 to 150 times, for stearoyl derivative of ethyl maslinate, about 10 to 100 times, for acetylated erythrodiol, about 10 to 100 times, for acetylated uvaol, about 10 to 100 times, for ethyl betulinate, and about 5 to 50 times, for acetylated betulin, that observed for the vitamin C-magnesium phosphate.
A culture medium was dispensed to wells of a 6-well plate (2 mL/well each), followed by inoculation of a desired amount of B-16 melanoma cells on each well, allowing the wells to stand at 37° C. and 5% CO2 to thus cultivate the cells. On the day subsequent thereto, a candidate sample (pentacyclic triterpenes) solution prepared was added to and mixed with the culture medium containing the cells and the cultivation was continued. The culture medium was replaced with fresh one on the 5th day from the initiation of the cultivation and the prepared sample solution was again added to the wells. On the next day, the culture medium was removed to recover the cells, followed by the washing of these cells with PBS (phosphate buffered physiological saline) and the subsequent evaluation of the cell-whitening degree. In this respect, the melanogenesis-inhibitory function was evaluated by comparing the cell-whitening degree thus obtained with that observed when using 450 ppm of vitamin C-magnesium phosphate as a known whitening agent (a positive control) and that obtained when any candidate sample was not used (control), according to the following evaluation criteria.
The evaluation criteria for the cell-whitening degree are as follows:
Regarding the results listed in Table 1, the whitening degree observed when adding 450 ppm of vitamin C-magnesium phosphate is selected as a standard.

Row | Structure (SMILES) | Melanin production-inhibitory effect (cell-whitening degree) (10 ppm) | Melanin production-inhibitory effect (cell-whitening degree) (15 ppm) | Melanin production-inhibitory effect (cell-whitening degree) (25 ppm) | Melanin production-inhibitory effect (cell-whitening degree) (50 ppm) | Melanin production-inhibitory effect (cell-whitening degree) (100 ppm) | Melanin production-inhibitory effect (cell-whitening degree) (200 ppm) | Melanin production-inhibitory effect (cell-whitening degree) (300 ppm) | Melanin production-inhibitory effect (cell-whitening degree) (450 ppm) | concentration required for showing the effect identical to that observed for 450 ppm of vitamin C-magnesium phosphate | melanogenesis-inhibitory function relative to that observed when 450 ppm of vitamin C-magnesium phosphate (standard) is added | Melanin production-inhibitory effect (cell-whitening degree) (2 ppm) | Melanin production-inhibitory effect (cell-whitening degree) (4 ppm) | Melanin production-inhibitory effect (cell-whitening degree) (6 ppm) | Melanin production-inhibitory effect (cell-whitening degree) (8 ppm)
1 | O=c1cc(CO)occ1O [Kojic Acid, reference compound] | − | − | − | ± | ± | + | ++ | ++ |  |  |  |  |  | 
2 | CC1(C)CC[C@]2(C(=O)O)CC[C@]3(C)C(=CC[C@@H]4[C@@]5(C)C[C@@H](O)[C@H](O)C(C)(C)[C@@H]5CC[C@]43C)[C@@H]2C1 [Purified maslinic acid 1, maslinic acid] |  |  |  |  |  |  |  |  | 4 ppm | about 110 times |  |  |  | 
3 | CC1(C)CC[C@]2(C(=O)O)CC[C@]3(C)C(=CC[C@@H]4[C@@]5(C)C[C@@H](O)[C@H](O)C(C)(C)[C@@H]5CC[C@]43C)[C@@H]2C1 [Purified maslinic acid 2, maslinic acid] | ++ |  |  |  |  |  |  |  |  |  | ± | + | ++ | ++
4 | C[C@H]1[C@H](C)CC[C@]2(C(=O)O)CC[C@]3(C)C(=CC[C@@H]4[C@@]5(C)CC[C@H](O)C(C)(C)[C@@H]5CC[C@]43C)[C@H]12 [Ursolic acid] | ++ |  |  |  |  |  |  |  |  | about 110 times | ± | + | ++ | ++
5 | C[C@H]1[C@H](C)CC[C@]2(CO)CC[C@]3(C)C(=CC[C@@H]4[C@@]5(C)CC[C@H](O)C(C)(C)[C@@H]5CC[C@]43C)[C@H]12 [Uvaol] | + |  | + | + |  |  |  |  |  | about 40 times | − |  | − | 
